According to patent US4575487A, “Method for determination of transglucosidase” (Miles Laboratories, Inc., priority 1983, dated 1986):

Key:
transglucosidase = transglucosidase (Aspergillus niger, UniProt P56526); experiment: Effect of acarbose on transglucosidase activity (panose produced from maltose, in presence of glucoamylase); assay type: biochemical; details: for amount of panose produced: maltose 10%, pH 4.8, 37° C., one hour; for Inhibition (%) transglucosidase: 40 units of transglucosidase
Description: (§1) A particularly effective, selective inhibitor is acarbose which is identified by J. Jap. Soc. […] The difference in the effect of acarbose on glucoamylase and transglucosidase has led to the development of a sensitive assay for transglucosidase in the presence of glucoamylase. To determine the level of acarbose needed to inhibit glucoamylase completely, purified glucoamylase equivalent to one DU (the amount that liberates one gram of reducing sugar per hour under the conditions of the assay published in U.S. Pat. No. 3,249,514) is treated with graded amounts of acarbose and the remaining activity measured by incubation with maltose under appropriate conditions, for example, at pH 4.2 and 37° C. with a maltose concentration of 10%. The extent of inhibition of glucoamylase activity is increased with increasing concentrations of acarbose up to 50 μg acarbose per DU enzyme and above, such concentrations causing 100% inhibition. In order to determine the effect of acarbose on TG activity, glucoamylase (one DU) containing TG (40 TG units, vide infra) was treated with different concentrations of acarbose and then incubated with maltose (10%), at pH 4.8, and 37° C. for one hour. The enzyme reaction was then terminated by heating the reaction mixture in a boiling water bath for 15 minutes and transglucosidase activity was determined by measuring, using liquid chromatography, the amount of panose produced during the reaction period. […] In these experiments, panose was routinely measured by a high pressure liquid chromatography procedure which separated this compound from glucose and maltose. Alternative procedures for specific determination of panose can be used equally well.
(§2) It is recognized that the inhibition of glucoamylase or acarbose and the measurement of transglucosidase activity may equally well be conducted under different conditions. In order to work at such alternative conditions, it is necessary to determine the effect of a range of acarbose concentrations under the conditions selected, and in this way to identify a level of acarbose sufficient to give complete inhibition of glucoamylase without inhibiting transglucosidase activity.
^b 40 units of transglucosidase were present in the reaction mixture.

amylolytic enzymes = details: J. Jap. Soc. Starch Sci., 27, 114-119 (1980); cited from earlier work
glucoamylase = glucoamylase (Aspergillus niger, UniProt P69328); experiment: Effect of acarbose on glucoamylase activity (remaining activity with maltose); assay type: biochemical; details: for Inhibition (%) glucoamylase: one unit of glucoamylase
Description: as §1, §2
^a one unit of glucoamylase was present in the reaction mixture.

[1] = acarbose 1.25 μg/DU glucoamylase
[2] = acarbose 2.5 μg/DU glucoamylase
[3] = acarbose 100 μg/DU glucoamylase
[4] = acarbose 200 μg/DU glucoamylase
[5] = acarbose 300 μg/DU glucoamylase
[6] = acarbose 400 μg/DU glucoamylase
[7] = acarbose 500 μg/DU glucoamylase
[8] = acarbose 600 μg/DU glucoamylase
[9] = acarbose 800 μg/DU glucoamylase
[10] = acarbose 1000 μg/DU glucoamylase
[11] = acarbose 2000 μg/DU glucoamylase

transglucosidase, sequence (P56526 26-266): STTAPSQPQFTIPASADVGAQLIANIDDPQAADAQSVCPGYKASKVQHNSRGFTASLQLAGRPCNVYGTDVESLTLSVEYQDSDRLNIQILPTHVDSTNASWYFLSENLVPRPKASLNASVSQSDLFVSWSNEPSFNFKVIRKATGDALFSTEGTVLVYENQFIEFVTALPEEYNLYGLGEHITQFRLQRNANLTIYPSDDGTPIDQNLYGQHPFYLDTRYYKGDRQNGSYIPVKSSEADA
transglucosidase, sequence (P56526 267-985): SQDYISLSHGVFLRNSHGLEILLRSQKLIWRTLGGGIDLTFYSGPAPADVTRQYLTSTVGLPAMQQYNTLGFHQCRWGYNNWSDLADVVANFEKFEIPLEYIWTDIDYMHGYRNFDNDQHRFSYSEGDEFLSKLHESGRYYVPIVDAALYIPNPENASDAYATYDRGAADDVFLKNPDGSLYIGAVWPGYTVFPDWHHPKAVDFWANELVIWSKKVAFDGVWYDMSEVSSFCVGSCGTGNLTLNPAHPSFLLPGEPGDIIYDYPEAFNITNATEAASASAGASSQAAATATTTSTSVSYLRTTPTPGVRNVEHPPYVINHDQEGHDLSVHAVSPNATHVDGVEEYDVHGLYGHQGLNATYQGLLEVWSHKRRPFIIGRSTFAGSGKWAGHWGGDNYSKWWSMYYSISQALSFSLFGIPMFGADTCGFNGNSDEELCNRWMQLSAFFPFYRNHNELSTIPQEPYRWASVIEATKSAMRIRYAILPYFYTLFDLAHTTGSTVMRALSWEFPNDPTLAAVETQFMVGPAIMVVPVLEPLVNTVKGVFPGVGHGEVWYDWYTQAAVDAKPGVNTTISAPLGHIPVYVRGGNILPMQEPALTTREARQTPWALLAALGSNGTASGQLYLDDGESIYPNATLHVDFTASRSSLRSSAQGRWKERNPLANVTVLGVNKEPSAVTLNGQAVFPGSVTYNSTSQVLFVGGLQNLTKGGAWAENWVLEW
glucoamylase, sequence (P69328 25-640): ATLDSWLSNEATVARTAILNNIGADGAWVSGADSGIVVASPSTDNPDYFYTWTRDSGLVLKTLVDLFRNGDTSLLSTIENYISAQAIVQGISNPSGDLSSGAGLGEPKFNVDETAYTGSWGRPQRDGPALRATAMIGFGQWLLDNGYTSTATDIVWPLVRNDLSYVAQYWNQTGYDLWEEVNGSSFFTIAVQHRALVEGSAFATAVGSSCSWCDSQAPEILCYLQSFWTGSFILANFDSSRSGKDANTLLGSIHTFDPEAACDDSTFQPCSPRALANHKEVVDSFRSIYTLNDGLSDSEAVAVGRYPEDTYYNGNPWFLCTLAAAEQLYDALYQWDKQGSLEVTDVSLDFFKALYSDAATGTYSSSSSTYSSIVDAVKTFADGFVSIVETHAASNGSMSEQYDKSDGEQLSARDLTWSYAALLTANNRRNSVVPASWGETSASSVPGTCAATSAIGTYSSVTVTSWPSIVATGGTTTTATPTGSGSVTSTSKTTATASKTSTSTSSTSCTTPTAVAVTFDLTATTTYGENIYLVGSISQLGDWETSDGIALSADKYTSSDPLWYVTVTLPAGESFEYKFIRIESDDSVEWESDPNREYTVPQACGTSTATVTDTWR

C[C@H]1O[C@H](O[C@H]2[C@H](O)[C@@H](O)[C@@H](O[C@H]3[C@H](O)[C@@H](O)C(O)O[C@@H]3CO)O[C@@H]2CO)[C@H](O)[C@@H](O)[C@@H]1N[C@H]1C=C(CO)[C@@H](O)[C@H](O)[C@H]1O (stereo partly shown) [acarbose]
amount of panose produced (transglucosidase; above 50 up to 500 μg acarbose per DU of glucoamylase): remained constant | Inhibition (%) transglucosidase (transglucosidase; [1]): 0% | Inhibition (%) transglucosidase (transglucosidase; [2]): 0% | Inhibition (%) transglucosidase (transglucosidase; acarbose 5 μg/DU glucoamylase): 0% | Inhibition (%) transglucosidase (transglucosidase; acarbose 10 μg/DU glucoamylase): 0% | Inhibition (%) transglucosidase (transglucosidase; acarbose 15 μg/DU glucoamylase): 0% | Inhibition (%) transglucosidase (transglucosidase; acarbose 20 μg/DU glucoamylase): 0% | Inhibition (%) transglucosidase (transglucosidase; acarbose 30 μg/DU glucoamylase): 0% | Inhibition (%) transglucosidase (transglucosidase; acarbose 40 μg/DU glucoamylase): 0% | Inhibition (%) transglucosidase (transglucosidase; acarbose 50 μg/DU glucoamylase): 0% | Inhibition (%) transglucosidase (transglucosidase; [3]): 0% | Inhibition (%) transglucosidase (transglucosidase; [4]): 0% | Inhibition (%) transglucosidase (transglucosidase; [5]): 0% | Inhibition (%) transglucosidase (transglucosidase; [6]): 0% | Inhibition (%) transglucosidase (transglucosidase; [7]): 0% | Inhibition (%) transglucosidase (transglucosidase; [8]): 6% | Inhibition (%) transglucosidase (transglucosidase; [9]): 8% | Inhibition (%) transglucosidase (transglucosidase; [10]): 12% | Inhibition (%) transglucosidase (transglucosidase; [11]): 23% | inhibition of transglucosidase activity (transglucosidase; acarbose 50-500 μg/DU): without there being any inhibition of transglucosidase activity | amount of panose produced (transglucosidase; acarbose exceeding 500 μg/DU glucoamylase): steady decrease in the amount of panose produced, indicating inhibition of TG | amount of panose produced (transglucosidase; up to 50 μg acarbose per DU of glucoamylase): increased with increasing levels of acarbose | inhibition of amylolytic enzymes (amylolytic enzymes): inhibitor of amylolytic enzymes | inhibition of glucoamylase activity (glucoamylase; 50 μg acarbose per DU enzyme and above, maltose 10%, pH 4.2, 37° C.): 100% | Inhibition (%) glucoamylase (glucoamylase; [1]): 23% | Inhibition (%) glucoamylase (glucoamylase; [2]): 36% | Inhibition (%) glucoamylase (glucoamylase; acarbose 5 μg/DU glucoamylase): 65% | Inhibition (%) glucoamylase (glucoamylase; acarbose 10 μg/DU glucoamylase): 86% | Inhibition (%) glucoamylase (glucoamylase; acarbose 15 μg/DU glucoamylase): 91% | Inhibition (%) glucoamylase (glucoamylase; acarbose 20 μg/DU glucoamylase): 95% | Inhibition (%) glucoamylase (glucoamylase; acarbose 30 μg/DU glucoamylase): 97% | Inhibition (%) glucoamylase (glucoamylase; acarbose 40 μg/DU glucoamylase): 98% | Inhibition (%) glucoamylase (glucoamylase; acarbose 50 μg/DU glucoamylase): 100% | Inhibition (%) glucoamylase (glucoamylase; [3]): 100% | Inhibition (%) glucoamylase (glucoamylase; [4]): 100% | Inhibition (%) glucoamylase (glucoamylase; [5]): 100% | Inhibition (%) glucoamylase (glucoamylase; [6]): 100% | Inhibition (%) glucoamylase (glucoamylase; [7]): 100% | Inhibition (%) glucoamylase (glucoamylase; [8]): 100% | Inhibition (%) glucoamylase (glucoamylase; [9]): 100% | Inhibition (%) glucoamylase (glucoamylase; [10]): 100% | Inhibition (%) glucoamylase (glucoamylase; [11]): 100% | inhibition of glucoamylase activity (glucoamylase; acarbose 50-500 μg/DU): completely inhibited
